Patent US20040034071A1, “Thioaryl sulfonamide hydroxamic acid compounds” (priority 1999, published 2004)
Structures can show the parent of a compound that is named as a salt.

Columns and labels:
[1] = molecular target: T1, recombinant human MMP-1 (Homo sapiens, UniProt P03956); assay: In vitro metalloprotease inhibition, fluorogenic MCA peptide substrate; format: biochemical; conditions: recombinant human MMP-1, APMA activated; room temperature; substrate 4 μM; 1 percent DMSO
T1 construct: made in house; host or cells: transfected HT-1080 cells (provided by Dr. Howard Welgus, Washington University)
T1 sequence (P03956 100-469): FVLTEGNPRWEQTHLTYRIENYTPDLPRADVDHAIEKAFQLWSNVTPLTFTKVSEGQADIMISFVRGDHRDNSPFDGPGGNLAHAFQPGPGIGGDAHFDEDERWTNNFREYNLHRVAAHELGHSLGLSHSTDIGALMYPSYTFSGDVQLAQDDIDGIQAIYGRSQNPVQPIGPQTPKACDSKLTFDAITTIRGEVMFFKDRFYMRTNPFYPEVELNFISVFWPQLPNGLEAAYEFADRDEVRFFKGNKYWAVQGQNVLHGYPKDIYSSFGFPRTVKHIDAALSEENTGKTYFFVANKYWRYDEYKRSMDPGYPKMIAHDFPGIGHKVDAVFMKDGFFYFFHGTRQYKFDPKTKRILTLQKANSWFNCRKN
Protocol: (§1) Several of the compounds prepared in the manner described in the previous Examples were assayed for activity by an in vitro assay. Following the procedures of Knight et al., FEBS Lett. 296(3):263 (1992). Briefly, 4-aminophenylmercuric acetate (APMA) or trypsin activated MMPs were incubated with various concentrations of the inhibitor compound at room temperature for 5 minutes.
(§2) More specifically, recombinant human MMP-13 and MMP-1 enzymes were prepared in laboratories of the assignee. MMP-13 was expressed in baculovirus as a proenzyme, and purified first over a heparin agarose column and then over a chelating zinc chloride column. The proenzyme was activated by APMA for use in the assay. MMP-1 expressed in transfected HT-1080 cells was provided by Dr. Howard Welgus of Washington University, St. Louis, Mo. The enzyme was also activated using APMA and was then purified over a hydroxamic acid column.
(§3) The enzyme substrate is a methoxycoumarin-containing polypeptide having the following sequence:
(§4) MCA-ProLeuGlyLeuDpaAlaArgNH^2, wherein MCA is methoxycoumarin and Dpa is 3-(2,4-dinitrophenyl)-L-2,3-diaminopropionyl alanine. This substrate is commercially available from Baychem as product M-1895.
(§5) The buffer used for assays contained 100 mM Tris-HCl, 100 mM NaCl, 10 mM CaCl2 and 0.05 percent polyethyleneglycol (23) lauryl ether at a pH value of 7.5. Assays were carried out at room temperature, and dimethyl sulfoxide (DMSO) at a final concentration of 1 percent was used to dissolve inhibitor compound.
(§6) The assayed inhibitor compound in DMSO/buffer solution was compared to an equal amount of DMSO/buffer with no inhibitor as control using Microfluor™ White Plates (Dynatech). The inhibitor or control solution was maintained in the plate for 10 minutes and the substrate was added to provide a final concentration of 4 μM.
(§7) In the absence of inhibitor activity, a fluorogenic peptide was cleaved at the gly-leu peptide bond, separating the highly fluorogenic peptide from a 2,4-dinitrophenyl quencher, resulting in an increase of fluorescence intensity (excitation at 328 nm/emission at 415 nm). Inhibition was measured as a reduction in fluorescent intensity as a function of inhibitor concentration, using a Perkin Elmer L550 plate reader. The IC50 values were calculated from those values. The results are set forth in the Inhibition Table below, reported in terms of IC50.

[2] = molecular target: T2, recombinant human MMP-13 (Homo sapiens, UniProt P45452); assay: as above; format: biochemical; conditions: recombinant human MMP-13, APMA activated; room temperature; substrate 4 μM; 1 percent DMSO
T2 construct: made in house
Protocol: as §1, §2, §3, §4, §5, §6, §7

[3] = test system: solid tumor cancers (colorectal, pancreatic, ovarian, prostate); conditions: cited from earlier work

Structure (SMILES) | IC50 [1] [nM] | IC50 [2] [nM] | rise of cancer-specific antigens used as surrogate markers for biological activity ([3]; Phase I/II, patients with advanced, treatment-refractory solid tumor cancers) | most common drug-related toxicity ([3]; clinical trials, patients)
Cc1ccc(Sc2ccc(S(=O)(=O)N(CCN3CCOCC3)[C@H](C)C(=O)NO)cc2)cc1 [Example 4f, N-hydroxy-2R-[[2-(4-morpholinyl)ethyl][[4-[(4-methylphenyl)thio]phenyl]sulfonyl]-amino]-propanamide, Monohydrochloride] | > 10000 | 0.1 |  | 
CNC(=O)[C@@H](NC(=O)[C@H](CC(C)C)[C@H](O)C(=O)NO)C(C)(C)C [marimastat] |  |  | dose-related reduction | musculoskeletal pain and stiffness
CC(C)[C@H](C(=O)NO)N(CCN1CCCCC1)S(=O)(=O)c1ccc(Sc2ccccc2)cc1 [Example 8d, N-hydroxy-3-methyl-2R-[[(4-phenylthio)-phenyl]-sulfonyl]-[2-(1-piperidinyl)-ethyl]amino]-butanamide, Monohydrochloride] | 500 | 1 |  | 
Cc1ccc(Sc2ccc(S(=O)(=O)N(CCN3CCOCC3)[C@@H](C(=O)NO)C(C)C)cc2)cc1 [Example 2e, N-hydroxy-3-methyl-2R-[[[4-[(4-methylphenyl)-thio]phenyl]sulfonyl][2-(4-morpholinyl)ethyl]-amino]-butanamide, Monohydrochloride] | 2000 | 0.5 |  | 
O=C(CN(CCN1CCOCC1)S(=O)(=O)c1ccc(Sc2ccccc2)cc1)NO [Example 6e, 2-[[[4-(phenylthio)phenyl]sulphonyl][2-(4-morpholinyl)ethyl]amino]-N-hydroxyacetamide, Hydrochloride] | 4000 | 0.1 |  | 
C[C@H](C(=O)NO)N(CCN1CCOCC1)S(=O)(=O)c1ccc(Sc2ccccc2)cc1 [Example 3g, N-hydroxy-2R-[[2-(4-morpholinyl)ethyl][[4-(phenylthio)phenyl]sulfonyl]amino]propanamide] | 1800 | 0.5 |  | 
O=C(CN(CCN1CCOCC1)S(=O)(=O)c1ccc(SC2CCCCC2)cc1)NO [Example 5f, [[[4-(Cyclohexylthio)phenyl]sulphonyl][2-(4-morpholinyl)ethyl]amino]-N-hydroxyacetamide] | > 10000 | 1.6 |  | 
CC(C)[C@H](C(=O)NO)N(CCN1CCOCC1)S(=O)(=O)c1ccc(Sc2ccccc2)cc1 [Example 7f, N-hydroxy-3-methyl-2R-[[(4-phenylthio)-phenyl]-sulfonyl]-[2-(4-morpholinyl)-ethyl]amino]-butanamide, Monohydrochloride] | 560 | 0.3 |  | 
Cc1cccc(Sc2ccc(S(=O)(=O)N(CCN3CCOCC3)[C@@H](C(=O)NO)C(C)C)cc2)c1 [Example 1g, N-hydroxy-3-methyl-2R-[[[4-[(3-methylphenyl)thio]phenyl]sulfonyl]-[2-(4-morpholinyl)-ethyl]amino]-butanamide, Monohydrochloride] | 1500 | 1.9 |  | 
